The values that follow come from US9637529B2, “Medicament for atrophy treatment or increasing cell growth” (SIMU TRADE CONSULTING GMBH & CO. LEASING KG, priority 2012, dated 2017).

Experiment [1] has as its system rat skeletal muscle cells (L6). Nature of the experiment: AlamarBlue proliferation assay, L6 cells. In kind it is cell-based. As for the experimental part:
FIG. 2: Effect of SERF2 on Proliferation of rat skeletal muscle cells (L6). 1×10^4 L6 cells were seeded per well containing 100 μl growth medium. Cells were incubated over night at +37° C., 5% v/v CO^2 and humidified atmosphere. Prior performing the assay, viability of cells was checked under the microscope. Cells were washed three times with 100 μl DPBS per well. SERF2 was diluted […]) in DMEM and 100 μl/well were added to the cells. Finally, cells were incubated at +37° C. for various time points. Subsequently 10 μl/well AlamarBlue™ reagent (Invitrogen) was added. Plates were incubated for one hour at +37° C. Fluorescence (Ex. 570 nm, Em. 585 nm) was measured using a Varioskan Flash multi-plate reader (Thermo Scientific). Obtained Data were evaluated using Microsoft Excel and Graph Pad Prism V4.
FIG. 6: Kinetics of the Effect of SERF2 on Proliferation of rat skeletal muscle cells (L6). Cells stimulated with SERF2 (green line) responded with proliferation and reached a max. proliferation rate after 6 days. Proliferation assay was performed essentially as in FIG. 2. Incubation times were 24, 48, 72 and 144 hrs, the SERF2 concentration added was 5 μg/ml.
Rat derived embryonic cardiomyocytes H9c2 (ATTC CRL-1446) and embryonic skeletal muscle cells L6 (ATTC CRL-1458) were cultured in Dulbecco's Modified Eagle Medium high glucose (DMEM, Sigma Aldrich) containing 10% v/v fetal calf serum (FCS, PAA) and 1% v/v Penicillin/Streptamycin (Gibco). Cells were grown in 80 cm2 cell culture flasks (NUNC) using 15 ml growth medium. Both cell lines were incubated under humidified atmosphere at +37° C. and 5% v/v CO^2. Cells were splitted when a confluency of approximately 90% was reached. […] Cell number and viability were determined by trypanblue exclusion performed by using an automated cell analyzer (CEDEX, Innovatis). […]
Proliferation was measured using the AlamarBlue™ assay according to the manufacturer's protocol. […] Fluorescence (Ex. 570 nm, Em. 585 nm) was measured using a Varioskan Flash multi-plate reader (Thermo Scientific). Data were evaluated using Microsoft Excel and GraphPad Prism V4.
For orientation: Alamar Blue is a resazurin reagent that responds to reducing activity.

The subject of experiment [2] is rat cardiomyocytes (H9c2). In words: AlamarBlue proliferation assay, H9c2 cells. Format: cell-based. On the procedure:
FIG. 3: Effect of SERF2 on Proliferation of H9c2 cells is dose-dependent. Proliferation assay was performed essentially as in FIG. 2. Incubation time was 24 hrs, added SERF2 concentrations ranged from 20 to 1.25 μg/ml.
FIG. 5: Kinetics of the Effect of SERF2 on Proliferation of rat cardiomyocytes (H9c2). Cells stimulated with SERF2 (green line) responded with proliferation and reached max. proliferation rate after 6 days. Proliferation assay was performed essentially as in FIG. 2. Incubation times were 24, 48, 72 and 144 hrs, the SERF2 concentration added was 5 μg/ml.
Rat derived embryonic cardiomyocytes H9c2 (ATTC CRL-1446) and embryonic skeletal muscle cells L6 (ATTC CRL-1458) were cultured in Dulbecco's Modified Eagle Medium high glucose (DMEM, Sigma Aldrich) containing 10% v/v fetal calf serum (FCS, PAA) and 1% v/v Penicillin/Streptamycin (Gibco). Cells were grown in 80 cm2 cell culture flasks (NUNC) using 15 ml growth medium. Both cell lines were incubated under humidified atmosphere at +37° C. and 5% v/v CO^2. Cells were splitted when a confluency of approximately 90% was reached. Usually a splitting ratio of 1:5 or 1:10 was applied. For this purpose, supernatant was removed and cells were washed using 10 ml Dulbecco's Phosphate Buffered Saline (DPBS, Gibco). Cells were harvested by addition of 3 ml Trypsin/EDTA (Gibco) followed by an incubation of 5 to 10 min at +37° C. Successful detachment of cells was checked under the microscope (IMT-2, Olympus) and 7 ml growth medium were added. Cell number and viability were determined by trypanblue exclusion performed by using an automated cell analyzer (CEDEX, Innovatis). For this, 950 μl DPBS and 50 μl cell-suspension were mixed and used for analysis.
Proliferation was measured using the AlamarBlue™ assay according to the manufacturer's protocol. Briefly, 1×10^4 cells were seeded per well containing 100 μl growth medium. […] Fluorescence (Ex. 570 nm, Em. 585 nm) was measured using a Varioskan Flash multi-plate reader (Thermo Scientific). Data were evaluated using Microsoft Excel and GraphPad Prism V4.

Where [3] appears, read: SERF2 5 μg/ml, incubation 24, 48, 72 and 144 hrs.

“SERF2: Small EDRK-rich factor 2, mature protein of 59 amino acids (SEQ ID NO: 1) (MTRGNQRELARQKNMKKQSDSVKGKRRDDGLSAAARKQRDSEIMQQKQKKANEKKEEPK; homo sapiens)”: in experiment [1] (AlamarBlue, single treatment, read daily until day six), the “proliferative effect on L6 rat skeletal muscle cells” value is “proliferative effect on L6 rat skeletal muscle cells in a dose- and time-dependent manner”. The “time to max. proliferation rate, L6” value in experiment [1] (setting [3]) came to 6 days. The “time of maximum proliferative effect, L6” value in experiment [1] (incubation time) is recorded as “three to six”. The “proliferative effect on H9c2 cells” value in experiment [2] (24 h treatment, SERF2 20 to 1.25 μg/ml) is recorded as “proliferative effect in a dose-dependent manner”. In addition, the “SERF2 concentration at which proliferative effect peaks, H9c2” value in experiment [2] (AlamarBlue) was found to be 5 µg/mL. Besides, in experiment [2] (setting [3]), the “time to max. proliferation rate, H9c2” value is listed as 6 days.
